# Reference: patent US20250089707A1, “ECO-FRIENDLY QUARANTINE COMPOSITION HAVING FUNCTION OF KILLING PHOSPHOLIPID ENVELOPED VIRUS” (priority 2022, published 2025)
# Columns and labels:
# [1] = tested on: human epithelial keratinocyte cells (HaCaT); test: Cytotoxicity, MTT, HaCaT; settings: 24 hours treatment
# [2] = tested on: human monocyte cells (THP-1); test: Cytotoxicity, MTT, THP-1; settings: THP-1, 24 hours treatment
# [3] = tested on: human bronchial epithelial cells (BEAS-2B); test: Cytotoxicity, MTT, BEAS-2B; settings: 24 hours treatment
# Bacillus subtilis = test: Antibacterial activity, paper disc method
# [4] = tested on: Staphylococcus epidermidis; test: Antibacterial activity, paper disc method
# Escherichia coli = test: Antibacterial activity, paper disc method
# Staphylococcus aureus = test: Antibacterial activity, paper disc method
# Streptococcus mutans = test: Antibacterial activity, paper disc method
# Pseudomonas aeruginosa = test: Antibacterial activity, paper disc method
# Salmonella typhimurium = test: Antibacterial activity, paper disc method
structure (smiles),measurement,setting,value
"CCCCCCCCCCCCCCCCCC(=O)[O-].[Na+] [Example P-3, Sodium stearate]",IC50 value (%),[1],0.005292%
same,IC50 value (%),[2],0.4165%
same,IC50 value (%),[3],0.00969%
same,MIC,Bacillus subtilis,≥100 μg/50 μl
same,MIC,[4],≥100 μg/50 μl
same,MIC,Escherichia coli,≥100 μg/50 μl
same,MIC,Staphylococcus aureus,≥100 μg/50 μl
same,MIC,Streptococcus mutans,≥100 μg/50 μl
same,MIC,Pseudomonas aeruginosa,≥100 μg/50 μl
same,MIC,Salmonella typhimurium,≥100 μg/50 μl
